# Results reported in article PMC5289826 (PLoS ONE, 2017).
# Columns and labels:
# [1] = biological target: T1, recombinant human 11β-HSD1 (Homo sapiens, UniProt P28845); assay: 11β-HSD1 enzyme activity in cell lysates (cortisone to cortisol, radiolabeled tracer, TLC); assay type: biochemical
# T1 construct: expressed in transfected cells
# Protocol: (§1) Human embryonic kidney (HEK-293) cells either stably expressing human 11β-HSD1 and H6PDH (HHH7 clone, [38]) or 11β-HSD2 (AT8 clone, [39]), or transiently expressing human 17β-HSD1 or 17β-HSD2, were cultivated in Dulbecco’s modified Eagle medium (DMEM) containing 4.5 g/L glucose, 10% fetal bovine serum, 100 U/mL penicillin, 0.1 mg/mL streptomycin, 1 × MEM nonessential amino acids, and 10 mM HEPES buffer, pH 7.4. Cells were washed with phosphate-buffered saline (PBS), centrifuged for 4 min at 150 × g, and the cell pellets were snap frozen on dry ice and stored at −80°C until further use.
# (§2) Cell lysates were resuspended in TS2 buffer (100 mM NaCl, 1 mM EGTA, 1 mM EDTA, 1 mM MgCl2, 250 mM sucrose, 20 mM Tris-HCl, pH 7.4), followed by sonication at 4°C using a Hielscher UP50H ultrasonic processor (0.3 cycle, 20 amplitude %, 20 impulses; Hielscher Ultrasonics GmbH, Teltow Germany). Cell lysates, reaction mixture, and either vehicle (DMSO) or inhibitor were incubated for 10 min at 37°C in a final volume of 22.2 μL. The solvent concentration was 0.1%. […] 11β-HSD2 activity was measured in the presence of 50 nM cortisol and 500 μM NAD^+. An amount of 50 nCi of radiolabeled tracer substrate was included in the experiments. […] The bands of the corresponding steroids were excised, followed by scintillation counting and calculation of the amount of substrate conversion. Data were obtained from at least three independent measurements. Glycyrrhetinic acid (CTRL 1) was used as positive control for 11β-HSD1 and 11β-HSD2 inhibition, apigenin (CTRL 2) for 17β-HSD1, and compound 22 from Vuorinen et al. [40](CTRL 3) for 17β-HSD2 inhibition.
# [2] = system: T2, recombinant human 11β-HSD2; assay: 11β-HSD2 enzyme activity in cell lysates (cortisol to cortisone); assay type: biochemical; conditions: 1 μM compound; lysates of HEK-293 cells; 50 nM cortisol
# T2 construct: expressed in transfected cells
# Protocol: as §1, §2
# human 17β-HSD1 = system: T3, human 17β-HSD1; assay: 17β-HSD1 enzyme activity in cell lysates (estrone to estradiol); assay type: biochemical; conditions: 1 μM, 200 nM estrone
# T3 construct: expressed in transfected cells; host or cells: HEK-293 (transient)
# Protocol: as §1, §2
# human 17β-HSD2 = system: T4, human 17β-HSD2; assay: 17β-HSD2 enzyme activity in cell lysates (estradiol to estrone); assay type: biochemical; conditions: 1 μM, 200 nM estradiol
# T4 construct: expressed in transfected cells; host or cells: HEK-293 (transient)
# Protocol: as §1, §2
# human 11β-HSD1 = system: T5, human 11β-HSD1; assay: 11β-HSD1 activity assay in intact HEK-293 cells co-expressing 11β-HSD1 and H6PDH; assay type: cell-based; conditions: 100 nM and 1 μM compound; intact HHH7 cells; 200 nM cortisone; 30 min
# T5 construct: expressed in transfected cells
# Protocol: HEK-293 cells co-expressing 11β-HSD1 and H6PDH were seeded in poly-L-lysine coated 96 well-plates (30’000 cells/well) and cultivated in DMEM. At 24 h post-seeding, the cells were washed with charcoal-treated serum-free DMEM (cDMEM) and incubated for 3 h in 100 μL cDMEM. Then, the medium was aspirated and replaced by 30 μL cDMEM. […] The reactions were terminated after 30 min of incubation, followed by analysis of substrate conversion as described above. Data were obtained from at least three independent measurements.
# endogenous 11β-HSD1 = biological target: T6, endogenous 11β-HSD1 (Homo sapiens, UniProt P28845); assay: 11β-HSD1-dependent cortisol formation in intact primary human keratinocytes; assay type: cell-based
# T6 construct: intact primary human keratinocytes expressing endogenous 11β-HSD1; host or cells: primary human epidermal keratinocytes
# T6 sequence (P28845 whole entry): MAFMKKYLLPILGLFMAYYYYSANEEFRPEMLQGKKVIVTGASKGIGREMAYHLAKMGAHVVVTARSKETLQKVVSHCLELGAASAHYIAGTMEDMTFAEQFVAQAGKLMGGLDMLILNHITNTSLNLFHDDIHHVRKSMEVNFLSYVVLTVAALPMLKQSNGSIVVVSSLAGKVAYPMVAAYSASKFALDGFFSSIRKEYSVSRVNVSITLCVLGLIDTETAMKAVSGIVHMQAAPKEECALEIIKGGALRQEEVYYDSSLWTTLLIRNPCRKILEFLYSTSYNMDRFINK
# Protocol: Human epidermal keratinocytes obtained from CELLnTEC advanced Cell Systems (Berne, Switzerland) were maintained in CnT-Prime medium (http://cellntec.com/products/cnt-pr/#datasheet) at 37°C. Cells were subcultivated before reaching confluence. After reaching 90% of confluence, the keratinocytes were washed twice with PBS prior to change to cortisol-free CnT-Prime medium (custom-made by CELLnTEC). […] Compound CAS 1009373-58-3 (CTRL 4, Merck Millipore, Darmstadt, Germany) was used as positive control. After 24 h cell culture supernatants were collected and the amount of cortisol produced was measured on a Mulstiskan Ascent plate reader (MTX Lab Systems, Bradenton, FL) using the Cortisol Parameter Assay Kit (R&D Systems, Minneapolis, MN) following the instructions by the manufacturer. Cell viability was assessed using PrestoBlue® Cell Viability Reagent (Invitrogen, Carlsbad, CA) according to the manufacturer’s instructions.
# human skin biopsies [3] = assay: Dermal total collagen content in ex vivo human skin biopsies (Picrosirius Red); conditions: 10 μM or 100 μM inhibitor topically, 6 days; 100 nM cortisone for 5 days
# Protocol: (§3) Ex vivo skin experiments were performed as contract research by Cutech Biotechnology following the Helsinki declaration and who obtained permission as well as informed consent from the patient (Padova, Italy). Human skin from abdominal plastic surgery of a donor was used. Skin samples were cut in pieces of approximately 8 × 3 mm (diameter × thickness) and cultured in an air-liquid interface in a perforated ring of stainless steel in contact with culture medium (modified Williams’ E medium, Sigma Aldrich) up to day 6. The culture medium was renewed on day 0 and day 3. The test compounds were applied topically and renewed daily. The application was performed as follows: skin biopsies were gently cleaned with a cotton pad and 4 μL of 10 μM or 100 μM test compound were applied on top of each piece and covered with a 6 mm (diameter) delivery membrane (CoTran 9728 Controlled Caliper Ethylene Vinyl Acetate Membrane, 3M, St. Paul, MN, USA).
# Skin viability was assessed in two skin biopsies after 6 days of treatment using methylthiazolyldiphenyl‐tetrazolium bromide (MTT, Sigma Aldrich) staining. Total dermal collagen in skin sections was semi-quantitatively evaluated by Picrosirius Red histochemical staining (using Picric Acid, Fast Green FCF and Direct Red from Sigma Aldrich) that dyes collagen fibers in purple-red. […] The evaluation was performed by estimating both color intensity and distribution using IMAGE J (NIH) analysis software, allowing to obtain a semi-quantitative evaluation of dermal collagen (collagen score). Two slides of each skin sample were processed by image acquisition and related analysis (i.e. 12 images for each treatment).
# human skin biopsies [4] = assay: Dermal collagen III content in UV exposed ex vivo human skin biopsies (anti-collagen III antibody); conditions: for collagen III vs UV treated vehicle control (in words): 100 μM
# Protocol: as §3
# Skin biopsies were subjected to UV irradiation using a BIO-SUN system (Vilber Lourmat, Eberhardzell, Germany). The system had the following specifications: Lamp wave length: UVB 312 nm (range 280–320 nm) and UVA 365 nm (range 355–375 nm), range of measure (irradiance): accuracy and linearity ± 0.2%, range of programmed energy: 0.1 to 99.99 J/cm^2, intensity: UVA (365 nm) 5 mW/cm^2, UVB (312 nm) 3 mW/cm^2, UVA + UVB: 5.6 + 3.2 mW/cm^2, respectively. The selected UV irradiation intensities were 40% and 80% of the Biological Effective Dose (BED) of 7.5 J/cm^2 UV daylight as described by Del Bino et al.. UV 40% BED = 3.0 J/cm^2 (= 0.1 J/cm^2 UVB + 2.9 J/cm^2 UVA); UV 80% = 6.0 J/cm^2 (= 0.2 J/cm^2 UVB + 5.8 J/cm^2 UVA).
# Furthermore, in a preliminary set of experiments, skin biopsies were UV irradiated at 3.0 J/cm^2 and 6.0 J/cm^2 and treated topically with 4 μL of 10 μM or 100 μM of the respective inhibitor, followed by determination of collagen III content using a mouse monoclonal anti-collagen III antibody (Sigma Aldrich).
# T1 sequence (P28845 whole entry): as above
smiles,measurement,setting,value
"Cc1ccc(-c2cccc(C(=O)N3CCCCCC3)c2)cc1F [3e, Azepan-1-yl(3’-fluoro-4’-methyl-[1,1’-biphenyl]-3-yl)methanone]",IC50,[1],34.5 nM
same,"11β-HSD1 Residual activity, % of control at 100 nM","[1]; 100 nM compound, lysates of HEK-293 cells, 200 nM cortisone, mean of three experiments",19 % of control
same,"11β-HSD1 Residual activity, % of control at 1 μM","[1]; 1 μM compound, lysates of HEK-293 cells, 200 nM cortisone, mean of three experiments",1 % of control
same,"11β-HSD2 Residual activity, % of control at 1 μM",[2],> 90 % of control
same,inhibition of 17β-HSD1 (in words),human 17β-HSD1,selective
same,inhibition of 17β-HSD2 (in words),human 17β-HSD2,selective
same,inhibition of 11β-HSD1 in intact cells (in words),human 11β-HSD1,almost completely inhibited
same,inhibition of cortisol formation (in words),"endogenous 11β-HSD1; 1 μM compound, primary human keratinocytes, 1 μM cortisone, 24 h",almost completely inhibited
same,IC50,endogenous 11β-HSD1; read-out: estimated IC50 of cortisol formation,≤ 100 nM
same,effect on cortisone-induced collagen decrease (in words),human skin biopsies [3],prevented the cortisone-induced collagen decrease
same,collagen III vs UV treated vehicle control (in words),"human skin biopsies [4]; 3.0 J/cm^2 UV irradiation, p<0.01",significantly higher collagen III
same,collagen III vs UV treated vehicle control (in words),human skin biopsies [4]; 6.0 J/cm^2 UV irradiation,significantly higher collagen III
same,effect on UV-mediated decrease in collagen III levels (in words),"human skin biopsies [4]; topical 10 μM or 100 μM, 3.0 and 6.0 J/cm^2 UV, preliminary",prevented the decrease in collagen III levels
same,melting point,,106 to 108 °C
